According to US4025623A, “4'-Epi-6'-hydroxyadriamycin and method of use” (priority 1974, dated 1977):
Values after ≈ are worked out from the molar mass of the structure shown. Read-outs that look alike come from different tables or passages of the source.

How the values were obtained:
HeLa cells = HeLa cells cloning efficiency (in vitro); format: cell-based; details: for IC50: Homo sapiens, HeLa, read-out: ID50 HeLa cells cloning efficiency
Protocol: (1) HeLa cells were exposed to each of compounds (I) and (V) for 2, 8 and 24 hours, after which the compounds were removed and the cells seeded on […]. Falcon plastic dishes (200 cells/plate) in a growth medium. The number of colonies was ascertained microscopically 5 days later.
(§1) The test compounds were dissolved in distilled water and then diluted in culture medium.
(§2) The results are reported in Table I as ID50 (Inhibiting Dose 50%), calculated on dose-effects lines.

[1] = system: Moloney Sarcoma virus (MSV); assay: MSV foci formation in mouse embryo fibroblasts (in vitro); format: cell-based; details: Fibroblast, read-out: ID50 MSV foci formation
Protocol: (§3) (2) Mouse embryo fibroblasts (MEF) were plated on 35 mm. Falcon plastic dishes, infected 24 hours later with Moloney Sarcoma virus (MSV), and treated for 3 days with different concentrations of the compounds of the invention. The number of foci of transformed cells was microscopically ascertained 5 days after the infection. Uninfected MEF were similarly treated, and at the end of the test, the cells were counted in a hemocytometer. In all the tests, the cells were incubated in a 5% CO2 incubator at 37° C.
as §1, §2

[2] = MEF proliferation (uninfected mouse embryo fibroblasts, in vitro); format: cell-based; details: time of exposure 72 hours, read-out: ID50 MEF proliferation
Protocol: as §3, §1

ascites Sarcoma 180 = assay: Antitumor activity on ascites Sarcoma 180 in CD 1 mice; format: in vivo; details: for LTS, Long Term survivors: after 60 days; for T/C, median survival time as % over controls: 1 treatment i.p. at day 1
Protocol: (§4) The antitumor activity of the compounds of the invention was tested on ascites Sarcoma 180. 3 month old CD 1 mice were used. Sarcoma 180 ascites cells were inoculated intraperitoneally (10^6 cells/mouse).
(§5) The test compounds were dissolved in distilled water, then diluted in Ringer's solution, and administered intraperitoneally 1 day after the tumor implant (10 ml./kg. of body weight). The toxicity of the test compounds was evaluated by macroscopic autoptic examination, mainly in terms of reduction in spleen size. The comparison of the effectiveness of the tested compounds is based on the maximum increase in median survival time, as compared to untreated controls, over the dose range used. The number of Long Term Survivors (LTS) refers to tumor-free mice at the end of the test (60 days).

[3] = Toxicity in Sarcoma 180 bearing CD 1 mice (toxic deaths, autopsy); format: in vivo
Protocol: as §4, §5

SMILES	IC50 (HeLa cells; 2 h) [µg/mL]	IC50 (HeLa cells; 8 h) [µg/mL]	IC50 (HeLa cells; 24 h) [µg/mL]	IC50 ([1]; 72 h) [µg/mL]	CC50 at 72 h [2] [µg/mL]	LTS, Long Term survivors (ascites Sarcoma 180; 0.5 mg./kg. i.p. at day 1)	T/C, median survival time as % over controls (ascites Sarcoma 180; 0.5 mg./kg.) [%]	LTS, Long Term survivors (ascites Sarcoma 180; 1 mg./kg. i.p. at day 1)	T/C, median survival time as % over controls (ascites Sarcoma 180; 1 mg./kg.) [%]	LTS, Long Term survivors (ascites Sarcoma 180; 2 mg./kg. i.p. at day 1)	T/C, median survival time as % over controls (ascites Sarcoma 180; 2 mg./kg.) [%]	T/C, median survival time as % over controls (ascites Sarcoma 180; 5 mg./kg.) [%]	Toxicity, number of mice which died as a result of the toxic effects of the compound ([3]; 5 mg./kg. i.p. at day 1)	T/C, median survival time as % over controls (ascites Sarcoma 180; 10 mg./kg.) [%]	LTS, Long Term survivors (ascites Sarcoma 180; 10 mg./kg. i.p. at day 1)	also measured
COc1cccc2c1C(=O)c1c(O)c3c(c(O)c1C2=O)C[C@@](O)(C(C)=O)C[C@@H]3O[C@H]1C[C@H](N)[C@H](O)[C@H](C)O1 [Daunomycin, daunomycin]	0.03 (≈ 0.0569 µM)	0.013 (≈ 0.0246 µM)	0.003 (≈ 0.00569 µM)	0.0055 (≈ 0.0104 µM)	0.009 (≈ 0.0171 µM)	3/20	146	8/55	172	11/68	192	176	14/50	–	–	T/C, median survival time as % over controls (ascites Sarcoma 180; 8 mg./kg.): 78%; Toxicity, number of mice which died as a result of the toxic effects of the compound ([3]; 8 mg./kg. i.p. at day 1): 7/10
COc1cccc2c1C(=O)c1c(O)c3c(c(O)c1C2=O)C[C@@](O)(C(C)=O)C[C@@H]3O[C@H]1C[C@H](N)[C@@H](O)[C@H](CO)O1 [4'-epi-6'-hydroxydaunomycin]	–	–	–	–	0.25 (≈ 0.46 µM)	–	–	–	–	–	100	–	–	167	–	IC50 (HeLa cells; time of exposure 2 hours): > 10 µg/mL; IC50 (HeLa cells; time of exposure 8 hours): > 10 µg/mL; IC50 (HeLa cells; time of exposure 24 hours): 1.3 µg/mL (≈ 2.39 µM); decrease of activity as compared to parent compound (HeLa cells; in vitro systems tested (HeLa cells, MSV foci, MEF proliferation), compared with 4'-epi-6'-hydroxyadriamycin versus adriamycin): The decrease of activity was higher; IC50 ([1]; time of exposure 72 hours): 0.1 µg/mL (≈ 0.184 µM); T/C, median survival time as % over controls (ascites Sarcoma 180; 50 mg./kg.): 137%; Toxicity, number of mice which died as a result of the toxic effects of the compound ([3]; 50 mg./kg. i.p. at day 1): 1/10
COc1cccc2c1C(=O)c1c(O)c3c(c(O)c1C2=O)C[C@@](O)(C(=O)CO)C[C@@H]3O[C@H]1C[C@H](N)[C@H](O)[C@H](C)O1 [Adriamycin, adriamycin]	0.28 (≈ 0.515 µM)	0.11 (≈ 0.202 µM)	0.018 (≈ 0.0331 µM)	0.0025 (≈ 0.0046 µM)	0.007 (≈ 0.0129 µM)	1/10	142	25/159	183	30/125	210	243	7/125	212	18/139	LTS, Long Term survivors (ascites Sarcoma 180; 5 mg./kg. i.p. at day 1): 27/125; Toxicity, number of mice which died as a result of the toxic effects of the compound ([3]; 10 mg./kg. i.p. at day 1): 18/139
COc1cccc2c1C(=O)c1c(O)c3c(c(O)c1C2=O)C[C@@](O)(C(=O)CO)C[C@@H]3O[C@H]1C[C@H](N)[C@@H](O)[C@H](CO)O1 [4'-epi-6'-hydroxyadriamycin]	0.9 (≈ 1.61 µM)	1 (≈ 1.79 µM)	1 (≈ 1.79 µM)	0.025 (≈ 0.0447 µM)	0.05 (≈ 0.0894 µM)	–	–	–	–	–	–	–	–	162	2/10	LTS, Long Term survivors (ascites Sarcoma 180; 7.5 mg./kg. i.p. at day 1): 1/10; T/C, median survival time as % over controls (ascites Sarcoma 180; 7.5 mg./kg.): 143%; LTS, Long Term survivors (ascites Sarcoma 180; 15 mg./kg. i.p. at day 1): 2/10; T/C, median survival time as % over controls (ascites Sarcoma 180; 15 mg./kg.): 134%; Toxicity (in words) ([3]; 15 mg./kg. i.p. at day 1): not toxic
